In patent US20240226074A1, “CELL-OF-ORIGIN TARGETED DRUG REPURPOSING FOR TRIPLE-NEGATIVE AND INFLAMMATORY BREAST CARCINOMA WITH HDAC AND HSP90 INHIBITORS COMBINED WITH NICLOSAMIDE” (priority 2022, published 2024):

Columns and labels:
SUM149 = assay: WST cell proliferation assay, SUM149 cells; type: cell-based
SUM190 = assay: WST cell proliferation assay, SUM190 cells; type: cell-based
IBC02 = assay: WST cell proliferation assay, IBC02 cells; type: cell-based
KPL4 = assay: WST cell proliferation assay, KPL4 cells; type: cell-based
[1] = cited from earlier work; for peak serum concentrations achieved in different clinical trials: human, in vivo; for Cmax: peak serum concentration, clinical trials, read-out: Phase I-II Cmax
IBC03 = assay: WST cell proliferation assay, IBC03 cells; type: cell-based
HDAC1 = HDAC1 (Homo sapiens, UniProt Q13547); conditions: previously shown [37]; cited from earlier work
Chain of HDAC1 (Q13547 whole entry): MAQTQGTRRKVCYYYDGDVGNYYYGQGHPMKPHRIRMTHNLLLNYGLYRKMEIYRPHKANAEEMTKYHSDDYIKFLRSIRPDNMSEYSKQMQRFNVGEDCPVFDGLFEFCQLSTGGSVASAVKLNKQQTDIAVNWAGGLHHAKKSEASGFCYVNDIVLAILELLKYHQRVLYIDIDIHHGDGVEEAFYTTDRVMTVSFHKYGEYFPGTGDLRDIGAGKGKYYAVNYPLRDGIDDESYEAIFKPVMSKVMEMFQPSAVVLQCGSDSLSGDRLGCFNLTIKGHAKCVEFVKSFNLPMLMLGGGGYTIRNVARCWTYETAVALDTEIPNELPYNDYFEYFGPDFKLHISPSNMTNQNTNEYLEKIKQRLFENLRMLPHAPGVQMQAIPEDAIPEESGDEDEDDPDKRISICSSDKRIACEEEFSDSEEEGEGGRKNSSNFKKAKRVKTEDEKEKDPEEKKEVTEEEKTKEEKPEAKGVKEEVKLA

MFM223 = assay: WST cell proliferation assay, MFM223 cells; conditions: 100 nM, 7 days
Experimental: (§1) The inhibition of cell proliferation by E, N, T and ENT is measured by WST assay.

[2] = at clinically recommended doses; cited from earlier work
HCC1913 = assay: WST cell proliferation assay, HCC1913 cells; conditions: 100 nM, 7 days
Experimental: as §1

[3] = single drug 500 nM, Belinostat panel
[4] = single drug 1000 nM, Belinostat panel
[5] = single drug 100 nM, Entinostat panel (upper part of Table 6)
[6] = single drug 150 nM, Entinostat panel
[7] = single drug 100 nM, Belinostat panel
[8] = single drug 200 nM, Belinostat panel
[9] = single drug 200 nM, Entinostat panel

| Compound | peak serum concentrations achieved in different clinical trials [1] [µM] | Cmax [1] [µM] | Survival of inflammatory breast cancer cells (percent viability vs DMSO) (SUM149; [5]) | Survival of inflammatory breast cancer cells (percent viability vs DMSO) (SUM190; [5]) | Survival of inflammatory breast cancer cells (percent viability vs DMSO) (IBC02; [5]) | Survival of inflammatory breast cancer cells (percent viability vs DMSO) (KPL4; [5]) | Survival of inflammatory breast cancer cells (percent viability vs DMSO) (IBC03; [5]) | Survival of inflammatory breast cancer cells (percent viability vs DMSO) (SUM149; [7]) | Survival of inflammatory breast cancer cells (percent viability vs DMSO) (SUM190; [7]) | Survival of inflammatory breast cancer cells (percent viability vs DMSO) (IBC02; [7]) | Survival of inflammatory breast cancer cells (percent viability vs DMSO) (KPL4; [7]) | side effects [2] | Survival of inflammatory breast cancer cells (percent viability vs DMSO) (IBC03; [7]) | also measured |
| --- | --- | --- | --- | --- | --- | --- | --- | --- | --- | --- | --- | --- | --- | --- |
| O=C(/C=C/c1cccc(S(=O)(=O)Nc2ccccc2)c1)NO [Belinostat] | 200 | 200 | – | – | – | – | – | – | – | – | – | – | – | Survival of inflammatory breast cancer cells (percent viability vs DMSO) (SUM149; [3]): 71; Survival of inflammatory breast cancer cells (percent viability vs DMSO) (SUM149; [4]): 21; Survival of inflammatory breast cancer cells (percent viability vs DMSO) (SUM190; [3]): 95; Survival of inflammatory breast cancer cells (percent viability vs DMSO) (SUM190; [4]): 107; Survival of inflammatory breast cancer cells (percent viability vs DMSO) (IBC02; single drug 500 nM, Belinostat panel (lower part of Table 6)): 14; Survival of inflammatory breast cancer cells (percent viability vs DMSO) (IBC02; [4]): 0; Survival of inflammatory breast cancer cells (percent viability vs DMSO) (KPL4; [3]): 91; Survival of inflammatory breast cancer cells (percent viability vs DMSO) (KPL4; [4]): 23; Survival of inflammatory breast cancer cells (percent viability vs DMSO) (IBC03; [3]): 91; Survival of inflammatory breast cancer cells (percent viability vs DMSO) (IBC03; [4]): 45 |
| Nc1ccccc1NC(=O)c1ccc(CNC(=O)OCc2cccnc2)cc1 [Entinostat] | – | – | 99 | 159 | 21 | 45 | 61 | – | – | – | – | – | – | inhibition of HDAC1 (HDAC1): inhibits; Survival of inflammatory breast cancer cells (percent viability vs DMSO) (SUM149; [6]): 102; Survival of inflammatory breast cancer cells (percent viability vs DMSO) (SUM190; [6]): 223; Survival of inflammatory breast cancer cells (percent viability vs DMSO) (IBC02; [6]): 12; Survival of inflammatory breast cancer cells (percent viability vs DMSO) (KPL4; [6]): 20; Survival of inflammatory breast cancer cells (percent viability vs DMSO) (IBC03; [6]): 35 |
| O=C(Nc1ccc([N+](=O)[O-])cc1Cl)c1cc(Cl)ccc1O [Niclosamide] | 2 | 2 | 113 | 135 | 20 | 91 | 46 | 74 | 133 | 17 | 104 | itching, drowsiness, dizziness, and skin rash | 35 | sensitivity of cell line (FIG. 2) (MFM223): exceptional sensitivity; sensitivity of cell line (FIG. 2) (HCC1913): exceptional sensitivity |
| CCc1cc(C(N)=O)ccc1-n1nc(C(C)C)c2c(-n3cnc(-c4cnn(C)c4)c3)ccnc21 [Pimitespib] | 7 | 7 | 115 | 114 | 107 | 89 | 89 | 111 | 112 | 114 | 102 | diarrhea, decreased appetite, malaise, renal impairment, and anemia | 89 | Survival of inflammatory breast cancer cells (percent viability vs DMSO) (SUM149; [8]): 158; Survival of inflammatory breast cancer cells (percent viability vs DMSO) (SUM149; [9]): 172; Survival of inflammatory breast cancer cells (percent viability vs DMSO) (SUM190; [8]): 100; Survival of inflammatory breast cancer cells (percent viability vs DMSO) (SUM190; [9]): 102; Survival of inflammatory breast cancer cells (percent viability vs DMSO) (IBC02; [8]): 105; Survival of inflammatory breast cancer cells (percent viability vs DMSO) (IBC02; [9]): 114; Survival of inflammatory breast cancer cells (percent viability vs DMSO) (KPL4; [8]): 136; Survival of inflammatory breast cancer cells (percent viability vs DMSO) (KPL4; [9]): 118; Survival of inflammatory breast cancer cells (percent viability vs DMSO) (IBC03; [8]): 81; Survival of inflammatory breast cancer cells (percent viability vs DMSO) (IBC03; [9]): 81 |
| O=C(CCCCCCC(=O)Nc1ccccc1)NO [Vorinostat] | – | 40 | – | – | – | – | – | – | – | – | – | – | – | – |
